From US4428938A, “Peptides affecting the immune regulation and a process for their preparation” (Richter Gedeon Vegyeszeti Gyar Rt., priority 1981, dated 1984)
Residues, ends and D or L forms follow the SMILES beside them.

What was measured:
[1] = tested on: lymphocytes of patients suffering from rheumatoid arthritis; assay: Active E-rosette test, lymphocytes of rheumatoid arthritis patients; format: cell-based, human; conditions: for E-rosette forming activity, percentage amount of active lymphocytes: n = 4; for Effect on E-rosette forming activity (in words): 10^-9 moles/lit.
Method: (§1) The active E-rosette test was carried out according to a modified method of Wybran et al [Wybran et al: New Engl. J. Med. 292, 475 (1975)] by the lymphocites of healthy and autoimmune patients (rheumatoid arthritis and systemic lupus erythematosus). To 50 μl of a lymphocyte cell suspension 10^-3 -10^-11 moles/lit. solutions of the test material were added and the mixture was incubated in an atmosphere containing 5.0% of carbon dioxide, at 37° C. for 60 minutes. Thereafter 50 μlit. of a 1% sheep erythrocite suspension were added and the mixture was centrifuged at 1000 r.p.m. for 10 minutes followed by shaking with a modified Gallenkampf-shaker (shaking time: 30 sec, stroke: 8 cm, shaking frequency: 65/min.). The rosettes were fixed with a 0.1% glutaric aldehyde (50 μlit. for each tube, 3 min.). Lymphocytes bonding more than three sheep erythrocite were counted under a microscope and 4×100 cells were evaluated. The separated lymphocytes contain macrophages and polymorphonuclear cells (up to 10%) as an impurity. The number of the cells forming the rosettes was corrected by this value each case.

[2] = tested on: lymphocytes of healthy persons; assay: Active E-rosette test, lymphocytes of healthy persons; format: cell-based, human; conditions: for E-rosette forming activity, percentage amount of active lymphocytes: n = 4
Method: as §1

[3] = tested on: antibody production against sheep erythrocyte; assay: Effect on antibody production (Ceglowski's method), agglutination titer; format: in vivo, H. Wistar rats
Method: (1) The effect on antibody production was tested according to Ceglowski's method [Ceglowski: Ann. N.Y. Acad. Sci. 249, 343 (1975)]. New-born H. Wistar rats were treated with single 25 μlit. doses of 4×10^-3 -4×10^-7 moles/lit. of the test material (9 animals for each dose) at the latest at the 12th hour after birth. The 14-day animals were then immunized with a sheep erythrocyte suspension administering 0.5 ml. of a 5% sheep erythrocyte suspension each animal intraperitoneally. On the 7th day after immunization the animals were decapitated. The blood of three animals was mixed and from the serum obtained (after centrifuging at 3000 r.p.m. for 10 minutes) the titers for antibodies were determined by the method of Takatsy [Takatsy: Acta Microbiol. Acad. Sci. Hung. 3, 191 (1955)]. The results are expressed in agglutination titers. The titer corresponds to the […] dilution of the serum in which agglutination can be observed.

[4] = tested on: plaque forming spleen cells (PFC); assay: Effect on plaque forming spleen cells (PFC); format: in vivo, H. Wistar rats; conditions: for Ratio of the plaque formation produced by treated and untreated (control) animals: new-born animals
Method: (2) The number of the cells producing a specific antibody was determined by the method of Canningham Handbook of Experimental Immunology (editor: D. M. Weir), 2nd Volume, p. 285, Blackwell, Oxford-London (1978). According to this method from the spleen cells of immunized animals, sheep erythrocyte suspension and complement a homogenous suspension was prepared and it was placed into a chamber suitable for forming a single cell layer. Around the spleen cells lytic areolas are formed, the number of which is identical with the number of the cells producing a specific antibody (plaque forming cells, PFC).
The test animals, not later than 12 hour after birth, were given a single i.p. dose of the test material. According to the method (1) three different doses of each substance were tested. On the 7th day after immunization the plaque formation of the spleen cells isolated from the animals was examined.

[5] = tested on: lymphocytes forming the E-rosette; assay: E-rosette formation, summary statement; format: cell-based
Method: as §1

[6] = tested on: antibody production against sheep erythrocyte; assay: Effect on antibody production (Ceglowski's method), agglutination titer; format: in vivo, H. Wistar rats; conditions: single 25 μlit. dose of 4·10^-8 moles/liter to new-born rats

## N=C(N)NCCC[C@H](N)C(=O)N[C@@H](CCCCN)C(=O)N[C@@H](CC(=O)O)C(=O)O [Arg--Lys--Asp, Arg-Lys-Asp] (H-Arg-Lys-Asp-OH)
[1]; 10^-3 moles/liter
  E-rosette forming activity, percentage amount of active lymphocytes: 27.2%
[1]; 10^-5 moles/liter
  E-rosette forming activity, percentage amount of active lymphocytes: 28.6%
[1]; 10^-7 moles/liter
  E-rosette forming activity, percentage amount of active lymphocytes: 28.8%
[1]
  Effect on E-rosette forming activity (in words): significantly stimulated
[1]; 10^-9 moles/liter
  E-rosette forming activity, percentage amount of active lymphocytes: 30.7%
[1]; 10^-11 moles/liter
  E-rosette forming activity, percentage amount of active lymphocytes: 28.4%
[2]; 10^-3 moles/liter
  E-rosette forming activity, percentage amount of active lymphocytes: 29.9%
[2]; 10^-5 moles/liter
  E-rosette forming activity, percentage amount of active lymphocytes: 34.1%
[2]; 10^-7 moles/lit.
  Effect on E-rosette forming activity (in words): significant stimulating effect
[2]; 10^-7 moles/liter
  E-rosette forming activity, percentage amount of active lymphocytes: 41.7%
[2]; 10^-9 moles/liter
  E-rosette forming activity, percentage amount of active lymphocytes: 39.3%
[2]; 10^-11 moles/liter
  E-rosette forming activity, percentage amount of active lymphocytes: 35.9%
[3]; 4.10^-6 moles/lit.
  In vivo effect on the antibody production (in words): significant stimulating activity
[3]; single 25 μlit. dose of 4·10^-4 moles/liter to new-born rats
  Antibody production, agglutination titer (X ± S.D.): 6.0 ± 0
[3]; single 25 μlit. dose of 4·10^-6 moles/liter to new-born rats
  Antibody production, agglutination titer (X ± S.D.): 7.3 ± 0.6
[4]; in lower doses
  In vivo effect on plaque forming spleen cells (in words): about two-times increase
[4]; single i.p. dose 1.0·10^-4 mmoles
  Ratio of the plaque formation produced by treated and untreated (control) animals: 0.7
[4]; single i.p. dose 1.0·10^-6 mmoles
  Ratio of the plaque formation produced by treated and untreated (control) animals: 2.1
[4]; single i.p. dose 1.0·10^-8 mmoles
  Ratio of the plaque formation produced by treated and untreated (control) animals: 1.8
[5]
  Activity: increases the number of the lymphocytes forming the E-rosette: active
[6]
  Antibody production, agglutination titer (X ± S.D.): 6.0 ± 1.2

## CC(C)[C@H](NC(=O)[C@H](CC(=O)O)NC(=O)[C@H](CCCCN)NC(=O)[C@@H](N)CCCNC(=N)N)C(=O)O [Arg--Lys--Asp--Val, Arg-Lys-Asp-Val] (H-RKDV-OH)
[1]; 10^-3 moles/liter
  E-rosette forming activity, percentage amount of active lymphocytes: 36.2%
[1]; 10^-5 moles/liter
  E-rosette forming activity, percentage amount of active lymphocytes: 31.5%
[1]; 10^-7 moles/liter
  E-rosette forming activity, percentage amount of active lymphocytes: 34.4%
[1]
  Effect on E-rosette forming activity (in words): significantly stimulated
[1]; 10^-9 moles/liter
  E-rosette forming activity, percentage amount of active lymphocytes: 36.8%
[1]; 10^-11 moles/liter
  E-rosette forming activity, percentage amount of active lymphocytes: 32.6%
[2]; 10^-3 moles/liter
  E-rosette forming activity, percentage amount of active lymphocytes: 41.3%
[2]; 10^-5 moles/liter
  E-rosette forming activity, percentage amount of active lymphocytes: 39.1%
[2]; 10^-7 moles/liter
  E-rosette forming activity, percentage amount of active lymphocytes: 38.5%
[2]; 10^-9 moles/lit.
  Effect on E-rosette forming activity (in words): significant stimulating effect
[2]; 10^-9 moles/liter
  E-rosette forming activity, percentage amount of active lymphocytes: 43.0%
[2]; 10^-11 moles/liter
  E-rosette forming activity, percentage amount of active lymphocytes: 33.7%
[4]; single i.p. dose 2.5·10^-3 mmoles
  Ratio of the plaque formation produced by treated and untreated (control) animals: 0.34
[4]; single i.p. dose 2.5·10^-4 mmoles
  Ratio of the plaque formation produced by treated and untreated (control) animals: 0.8
[5]
  Activity: increases the number of the lymphocytes forming the E-rosette: active
